# Data as given in patent US11534457B2, “Use of dextran sulfate” (priority 2017, dated 2022).
# Experiments:
# [1] = test system: closed-head diffuse severe TBI (sTBI); test: sTBI in rats, dose study, HPLC of free amino acids and amino group containing compounds (Example 7); assay type: in vivo, Male Wistar rats
# [2] = test system: 3C system [HUVEC+(IL-1β, TNFα and IFNγ)]; test: BioMAP 3C system; assay type: cell-based, Human
# Text: In this study LMW-DS was characterized by profiling in the BioMAP® Diversity PLUS panel. The BioMAP® panel consists of human primary cell-based systems designed to model different aspects of the human body in an in vitro format. The 12 systems in the BioMAP® Diversity PLUS panel (Table 32) allow test agent characterization in an unbiased way across a broad set of systems modeling various human disease states. The BioMA®P systems are constructed with one or more primary cell types from healthy human donors, with stimuli, such as cytokines or growth factors, added to capture relevant signaling networks that naturally occur in human tissue or pathological conditions. […]
# Systems are derived from either single cell types or co-culture systems. […] Test agents prepared in either DMSO (small molecules; final concentration 0.1%) or PBS (biologics) are added at the indicated concentrations 1-hr before stimulation, and remain in culture for 24-hrs or as otherwise indicated (48-hrs, MyoF system; 72-hrs, BT system (soluble readouts); 168-hrs, BT system (secreted IgG)). […] Soluble factors from supernatants are quantified using either HTRF® detection, bead-based multiplex immunoassay or capture ELISA. Overt adverse effects of test agents on cell proliferation and viability (cytotoxicity) are detected by sulforhodamine B (SRB) staining, for adherent cells, and alamarBlue® reduction for cells in suspension. […]
# [3] = 1 mg/kg s.c. single, 30 min post-sTBI, sacrifice 2 days
# [4] = 5 mg/kg s.c. single, 30 min post-sTBI, sacrifice 2 days
# [5] = 15 mg/kg s.c. single, 30 min post-sTBI, sacrifice 2 days
# [6] = rats, 7 days post-sTBI, repeated administration of 15 mg/kg b.w.
# [7] = rats, 7 days post-sTBI, single administration of 1 mg/kg b.w.
# [8] = rats, 7 days post-sTBI, single administration of 5 mg/kg b.w.
# [9] = rats, 7 days post-sTBI, single administration of 15 mg/kg b.w.
substance,measurement,setting,value
low molecular weight dextran sulfate [LMW-DS],"GLN, brain concentration",[1]; [3],4.37 ± 0.59 nmol/g w.w.
same,"LYS, brain concentration",[1]; [3],0.29 ± 0.11 nmol/g w.w.
same,"ORN, brain concentration",[1]; [3],0.02 ± 0.01 nmol/g w.w.
same,"THR, brain concentration",[1]; [3],0.70 ± 0.15 nmol/g w.w.
same,"VAL, brain concentration",[1]; [3],0.07 ± 0.03 nmol/g w.w.
same,"ORN, brain concentration",[1]; [4],0.01 ± 0.01 nmol/g w.w.
same,"THR, brain concentration",[1]; [4],0.77 ± 0.17 nmol/g w.w.
same,"VAL, brain concentration",[1]; [4],0.08 ± 0.03 nmol/g w.w.
same,"GLN, brain concentration",[1]; [5],4.21 ± 0.51 nmol/g w.w.
same,"LEU, brain concentration",[1]; [5],0.04 ± 0.01 nmol/g w.w.
same,"ORN, brain concentration",[1]; [5],0.02 ± 0.01 nmol/g w.w.
same,"VAL, brain concentration",[1]; [5],0.06 ± 0.03 nmol/g w.w.
same,isoleucine (ILE),[1]; 2 days post sTBI,restored
same,osmolyte and aromatic free amino acids,[1]; 2 days post sTBI,No remarkable effects
same,"free amino acids involved in NO generation (ARG, CITR)","[1]; 2 days post sTBI, 15 mg/kg b.w.",particularly effective
same,free amino acids involved in neurotransmission,"[1]; 2 days post sTBI, 5 or 15 mg/kg b.w.",partly effective
same,methionine,"[1]; 2 days post sTBI, any dose tested",Restoration
same,TAU concentrations,[1]; 7 days post sTBI,normalized
same,aromatic amino acids,[1]; 7 days post sTBI,caused the increase
same,GLU,"[1]; 7 days post sTBI, 15 mg/kg b.w. single or repeat",normalization
same,"free amino acids involved in NO generation (ARG, CITR)","[1]; 7 days post sTBI, 5 or 15 mg/kg b.w. (single and repeat)",particularly effective
same,L-Cystathionine (L-Cystat),"[1]; 7 days post sTBI, highest dose",significant increase
same,MET,"[1]; 7 days post sTBI, highest dose, single or repeat",Increase
same,ALA concentration in deproteinized brain homogenates,[1]; [6],0.47 ± 0.05 nmol/g w.w.
same,ASN concentration in deproteinized brain homogenates,[1]; [6],0.10 ± 0.02 nmol/g w.w.
same,CITR concentration in deproteinized brain homogenates,[1]; [6],0.03 ± 0.01 nmol/g w.w.
same,GLN concentration in deproteinized brain homogenates,[1]; [6],3.88 ± 0.4 µmol/g w.w.
same,HYS concentration in deproteinized brain homogenates,[1]; [6],0.06 ± 0.01 nmol/g w.w.
same,ILE concentration in deproteinized brain homogenates,[1]; [6],0.03 ± 0.01 nmoL/g w.w.
same,LEU concentration in deproteinized brain homogenates,[1]; [6],0.04 ± 0.01 nmoL/g w.w.
same,LYS concentration in deproteinized brain homogenates,[1]; [6],0.23 ± 0.07 nmoL/g w.w.
same,MET concentration in deproteinized brain homogenates,[1]; [6],0.05 ± 0.01 nmol/g w.w.
same,THR concentration in deproteinized brain homogenates,[1]; [6],0.77 ± 0.14 nmol/g w.w.
same,TYR concentration in deproteinized brain homogenates,[1]; [6],0.14 ± 0.02 nmol/g w.w.
same,VAL concentration in deproteinized brain homogenates,[1]; [6],0.07 ± 0.01 nmoL/g w.w.
same,ASN concentration in deproteinized brain homogenates,[1]; [7],0.10 ± 0.02 nmol/g w.w.
same,CITR concentration in deproteinized brain homogenates,[1]; [7],0.03 ± 0.01 nmol/g w.w.
same,GLN concentration in deproteinized brain homogenates,[1]; [7],4.1 ± 0.42 µmol/g w.w.
same,HYS concentration in deproteinized brain homogenates,[1]; [7],0.06 ± 0.01 nmol/g w.w.
same,LYS concentration in deproteinized brain homogenates,[1]; [7],0.19 ± 0.06 nmoL/g w.w.
same,MET concentration in deproteinized brain homogenates,[1]; [7],0.03 ± 0.01 nmol/g w.w.
same,TAU concentration in deproteinized brain homogenates,[1]; [7],4.02 ± 0.51 nmol/g w.w.
same,THR concentration in deproteinized brain homogenates,[1]; [7],0.71 ± 0.12 nmol/g w.w.
same,TYR concentration in deproteinized brain homogenates,[1]; [7],0.13 ± 0.02 nmol/g w.w.
same,ASN concentration in deproteinized brain homogenates,[1]; [8],0.10 ± 0.02 nmol/g w.w.
same,CITR concentration in deproteinized brain homogenates,[1]; [8],0.03 ± 0.01 nmol/g w.w.
same,GLN concentration in deproteinized brain homogenates,[1]; [8],3.86 ± 0.4 µmol/g w.w.
same,GLY concentration in deproteinized brain homogenates,[1]; [8],0.88 ± 0.15 nmol/g w.w.
same,HYS concentration in deproteinized brain homogenates,[1]; [8],0.06 ± 0.01 nmol/g w.w.
same,LYS concentration in deproteinized brain homogenates,[1]; [8],0.21 ± 0.04 nmoL/g w.w.
same,MET concentration in deproteinized brain homogenates,[1]; [8],0.04 ± 0.01 nmol/g w.w.
same,THR concentration in deproteinized brain homogenates,[1]; [8],0.71 ± 0.15 nmol/g w.w.
same,TRP concentration in deproteinized brain homogenates,[1]; [8],0.02 ± 0.01 nmol/g w.w.
same,TYR concentration in deproteinized brain homogenates,[1]; [8],0.13 ± 0.02 nmol/g w.w.
same,ASN concentration in deproteinized brain homogenates,[1]; [9],0.10 ± 0.02 nmol/g w.w.
same,CITR concentration in deproteinized brain homogenates,[1]; [9],0.03 ± 0.01 nmol/g w.w.
same,GLN concentration in deproteinized brain homogenates,[1]; [9],3.73 ± 0.38 µmol/g w.w.
same,HYS concentration in deproteinized brain homogenates,[1]; [9],0.06 ± 0.01 nmol/g w.w.
same,LYS concentration in deproteinized brain homogenates,[1]; [9],0.21 ±0.05 nmoL/g w.w.
same,MET concentration in deproteinized brain homogenates,[1]; [9],0.04 ± 0.01 nmol/g w.w.
same,THR concentration in deproteinized brain homogenates,[1]; [9],0.72 ± 0.14 nmol/g w.w.
same,TYR concentration in deproteinized brain homogenates,[1]; [9],0.14 ± 0.02 nmol/g w.w.
same,Increased biomarker activity,[2],IL-8
